Measured values reported in PMC12723449, “From Pharmacophore to Warhead: NAD^+‐Targeting Triazoles as Mechanism‐Based Sirtuin Inhibitors” (Angewandte Chemie (International Ed. in English), 2025).

Biological target: T1, SIRT2 (Homo sapiens, UniProt Q8IXJ6)
T1 construct: For assay experiments, strep-tagged human SIRT1134−747 and SIRT256-356 were expressed and purified as previously; Strep-tag; made in house; host or cells: E. coli BL21 Star (DE3)
T1 sequence (Q8IXJ6 56-356 limits assumed): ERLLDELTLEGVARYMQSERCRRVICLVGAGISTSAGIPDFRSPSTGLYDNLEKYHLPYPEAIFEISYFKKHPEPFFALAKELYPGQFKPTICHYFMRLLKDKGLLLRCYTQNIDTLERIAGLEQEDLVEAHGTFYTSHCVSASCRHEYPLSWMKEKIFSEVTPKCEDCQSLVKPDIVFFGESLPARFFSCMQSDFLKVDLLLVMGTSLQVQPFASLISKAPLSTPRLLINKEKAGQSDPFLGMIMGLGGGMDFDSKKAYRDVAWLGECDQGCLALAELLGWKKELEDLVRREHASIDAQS
Assay: CE-ESI-MS analysis of adducts formed in vitro
Assay type: biochemical
Conditions: SIRT2 incubated with NAD+ and compound, thermal denaturation
Description: Capillary electrophoresis–electrospray ionization–mass spectrometry (CE-ESI-MS) analysis of […]
Analysis of the enzymatic products were performed using a capillary electrophoresis coupled to mass spectrometry method (CE-MS) described first in the separation of inositol (pyro)phosphates.[11] CE (Agilent 7100 CE system) was coupled to a time-of-flight mass spectrometry Agilent 6545 system and ionization was performed with a commercially available Agilent Jet Stream (AJS) electrospray ionization (ESI) source. An Agilent liquid coaxial interface was used and the ionization spray was stabilized with a water-isopropanol (1:1 v/v) mixture as sheath liquid. The sheath liquid was pumped with an Agilent 1200 isocratic LC pump, using a 1:100 splitter and resulting in a flow of 1.5 µl/min.
A mixture of SIRT256-356 (final concentration of 11 mg/mL) in SEC buffer, compound 1 or 7 (3.33 mM of inhibitor with a final DMSO concentration of 3.33 % (v/v)) and NAD+ (final concentration of 10 mM) were incubated for 90 min and centrifuged for 5 min to remove inhibitor precipitate. Following SIRT2 denaturation at 65 °C for 1 min and centrifugation for 5 min to remove precipitated protein, 20 nL of each sample was injected under 100 mbar pressure for 20 s. […] Analytes were detected in negative ionization mode, a capillary voltage of -3000 V and an ESI spray current of 2.1 µA. […]

Row | ADPR adduct detected in solution by CE-ESI-MS | Structure (SMILES)
1 | confirmed release of 7–ADPR | Cc1cc(C)nc(SCC(=O)Nc2ncc(Cc3cccc(OCc4c[nH]nn4)c3)s2)n1 [Compound 7]
2 | undetectable | COCCn1cc(COc2cccc(Cc3cnc(NC(=O)CSc4nc(C)cc(C)n4)s3)c2)nn1 [Compound 1, reference compound]
